The text below walks through data of US20240417727A1, “ANTAGONIST OF THE MIRNA-106B-5P TO TREAT OR PREVENT THE CARDIOTOXICITY THAT IS DEVELOPED IN ONCOLOGIC PATIENTS AFTER RECEIVING ANTHRACYCLINE-BASED CHEMOTHERAPY” (UNIVERSIDAD DE MURCIA, priority 2021, published 2024).

One data set concerns PR55α. The data set can be described thus: PR55α expression levels by Western blot in hiPsCMs. Conditions: for decrease in PR55α protein levels: Dox. The data set is classed as cell-based, human. The text has this:
The hsa-miR-106b-5p sequence of nucleotides was obtained from www.MiRbase.org. Human miR-106b (accession No: MIMAT0000680) and nucleotide sequence of 5′-[…]-3′ are homologous between mice and man. In order to express or block the specific miR-106b function, synthetic pre-miR-106b or antimiR-106 oligonucleotides were transfected into hiPsCMs cells, respectively. Lipofectamine RNAiMAX transfection reagent (ThermoFisher) was used according to the manufacturer's instructions. […] Two day before transfection, hiPsCMs cells were seeded in 6-well plates with 2 ml of STEMdiff™ Cardiomyocyte Support Medium (STEMCELL™ Technologies) to a density of 60%. Stock transfection mixes were made according to manufacturer's instructions. Briefly, 9 μl of Lipofectamine reagent was diluted in 141 μl of Opti-MEM I Medium (Invitrogen) and incubated 5 min at RT. In another tube, pre-miRNA, anti-miRNA or the specific controls oligonucleotides were diluted with Opti-MEM to a final concentration of 50 nM. Both mixes were incubated together for 30 min at RT to allow complex formation between miRNA and lipids. To transfect cells, the STEMdiff™ Cardiomyocyte Support Medium was removed and replaced with 1.75 ml fresh Medium and 250 μl of the appropriate transfection mix. Cells were incubated at 37° C. for […], after which hiPsCMs were treated with […] Dox for 15 h. Transfection efficiency was tested in parallel using both hiPsCMs as well as a mouse cell line HL-1 (FIG. 7). […]
(§1) Protein extracts (10 μg) obtained were denatured, separated by SDS-PAGE electrophoresis (Bio-Rad), transferred onto PVDF membrane (Millipore) and probed with antibodies to GADPH (MERCK, 8795,1:5000), TBP (CELL SIGNALING, 8515, 1:1000), PR55α (CELL SIGNALING, 5689, 1:1000), phospho-HDAC4 (ABCAM, ab39408, 1:2000), HDAC4 (CELL SIGNALING, 5392, 1:1000), YY1 (CELL SIGNALING, 2185,1:1000) and sST2 (PROTEINTECH, 11,920-1-AP, 1:1000). […] Signals were detected by chemiluminescence and quantified using ImageJ 1.44p pixel analysis (US National Institutes of Health).

Another data set has as its system HDAC4-YY1 interaction. The data set can be described thus: Reciprocal co-immunoprecipitation of HDAC4 and YY1 in nuclear fraction of hiPsCMs. The data set is classed as cell-based, human. Conditions: nuclear fraction from hiPsCMs. The protocol: Briefly, fresh LV (˜30 mg) tissue or harvested untreated or treated cells (˜3×10^6 cells) were washed using cold DPBS along with 100-fold diluted protease and phosphatase inhibitors. Human cardiomyocytes were pelleted by centrifugation at 480×g for 10 min at 4° C., while the myocardium was placed in a pre-chilled glass Petri dish and minced on ice using sharp scissors. All samples were homogenized in 500 μl of STM buffer at pH 7.4, containing 250 mM sucrose, 50 mM Tris-HCl, 5 mM MgCl2, 5 mM Na3VO4, 1% (v/v) protease and phosphatase inhibitor cocktails and homogenized for 1 min on ice using a tight-fitting Teflon pestle attached to a Potter S. homogenizer (Sartorius Stedium, Goettingen, Germany) set to 800 rpm. The homogenate was maintained on ice for 30 min, vortexed at maximum speed for 15 s and then centrifuged at 800×g for 15 min at 4° C. The pellet was labelled as P0 and kept on ice; the supernatant was labelled as S0. The pellet P0 (containing nuclei and debris) was resuspended in 500 μl STM buffer, vortexed at maximum speed for 15 s and then centrifuged at 500×g for 15 min at 4° C. Following the above step, the nuclear pellet was labelled as P1 and kept on ice, and the supernatant S1 (cell debris) was discarded. […] The protein content of each compartment was determined using the BCA protein assay^48. […]

The test system of the next data set is HDAC4. The data set can be described thus: Phosphorylated and total HDAC4 in cytosol and nucleus (subcellular fractionation, Western blot). In kind it is cell-based, human. The settings on record: hiPsCMs; for phosphorylation state of HDAC4 Ser246 in cytosol: Dox 15 h, preincubation 24 h before Dox; for total HDAC4 levels in nuclei fractions: Dox, pretreatment before Dox. Here is the method:
Briefly, fresh LV (˜30 mg) tissue or harvested untreated or treated cells (˜3×10^6 cells) were washed using cold DPBS along with 100-fold diluted protease and phosphatase inhibitors. Human cardiomyocytes were pelleted by centrifugation at 480×g for 10 min at 4° C., while the myocardium was placed in a pre-chilled glass Petri dish and minced on ice using sharp scissors. All samples were homogenized in 500 μl of STM buffer at pH 7.4, containing 250 mM sucrose, 50 mM Tris-HCl, 5 mM MgCl2, 5 mM Na3VO4, 1% (v/v) protease and phosphatase inhibitor cocktails and homogenized for 1 min on ice using a tight-fitting Teflon pestle attached to a Potter S. homogenizer (Sartorius Stedium, Goettingen, Germany) set to 800 rpm. The homogenate was maintained on ice for 30 min, vortexed at maximum speed for 15 s and then centrifuged at 800×g for 15 min at 4° C. The pellet was labelled as P0 and kept on ice; the supernatant was labelled as S0. The pellet P0 (containing nuclei and debris) was resuspended in 500 μl STM buffer, vortexed at maximum speed for 15 s and then centrifuged at 500×g for 15 min at 4° C. Following the above step, the nuclear pellet was labelled as P1 and kept on ice, and the supernatant S1 (cell debris) was discarded. To further increase the purity of the P1 fraction it was washed in 400 μl STM buffer, vortexed at maximum speed for 15 s and then centrifuged at 1000×g for 15 min at 4° C. The washed pellet was labelled as P2 (S2 was discarded) and resuspended in 100 μl NET buffer composed of 20 mM Hepes pH 7.9, 1.5 mM MgCl2, 0.5 M NaCl, 0.2 mM EDTA, 20% (v/v) glycerol, 1% (v/v) Triton-X-100 and protease and phosphatase inhibitors, using a pipette to triturate until homogeneity. Pellet P2 was vortexed at maximum speed for 15 s and incubated on ice for 30 min; the resulting fraction contained the nuclei, which were lysed by sonication (Soniprep 150, MSE, London, UK) at a high setting for 10-15 s with 30 s pauses whilst being kept on ice. The lysate was centrifuged at 9000×g for 30 min at 4° C., the resultant supernatant (S3) was the final “nuclear fraction”. […] The protein content of each compartment was determined using the BCA protein assay^48. […]
as §1
Background: A western blot detects proteins with antibodies after separation by electrophoresis.

Another data set relates to sST2. The data set can be described thus: sST2 expression levels in hiPsCMs. The data set is classed as cell-based, human. Conditions: Dox 15 h. The protocol: RNA isolation and quantitative RT-PCR.
(§2) Protein extracts (10 μg) obtained were denatured, separated by SDS-PAGE electrophoresis (Bio-Rad), transferred onto PVDF membrane (Millipore) and probed with antibodies to GADPH (MERCK, 8795,1:5000), TBP (CELL SIGNALING, 8515, 1:1000), PR55α (CELL SIGNALING, 5689, 1:1000), phospho-HDAC4 (ABCAM, ab39408, 1:2000), HDAC4 (CELL SIGNALING, 5392, 1:1000), YY1 (CELL SIGNALING, 2185,1:1000) and sST2 (PROTEINTECH, 11,920-1-AP, 1:1000). Membranes were developed using HRP conjugated secondary antibodies and Pierce ECL western blotting substrate (Thermo Fisher Scientific). Signals were detected by chemiluminescence and quantified using ImageJ 1.44p pixel analysis (US National Institutes of Health).

For a further data set, the system named is YY1. The data set can be described thus: YY1 expression levels by Western blot in hiPsCMs. In kind it is cell-based, human. The settings on record: Dox. Here is the method: as §2
For the next data set, the system named is miR-106b. The data set can be described thus: miR-106b levels by quantitative RT-PCR in hiPsCMs exposed to Dox. The data set is classed as cell-based, human. The settings on record: 5 μM Dox.
Data set [1] deals with Caspase 3/7 activity in hiPsCMs. The data set can be described thus: Caspase-Glo 3/7 assay. In kind it is cell-based, human. The settings on record: 5 μM Dox 15 h. Here is the method:
Caspase assay was performed as per the manufacturer's instructions with the Caspase-Glo 3/7 kit (Promega). In this setting, hiPsCMs were treated with 5 μM Dox for 15 h. Next, hiPsCMs and caspase assay reagent were left at RT for 30 min. The next step was adding an equal amount of caspase assay reagent and further incubated for 30 min at RT. Luminescence was measured using a microplate reader CLARIOstar Plus (BMG Labtech).

The subject of another data set is PP2A. The data set can be described thus: PP2A Immunoprecipitation Phosphatase Assay. The data set is classed as cell-based, human. The settings on record: hiPsCMs, Dox treatment. Here is the method:
To measure PP2A phosphatase activity, we used a PP2A Immunoprecipitation Phosphatase Assay Kit (Millipore Sigma, catalog number 17-313). In brief, cells were lysed in 20 mM imidazole HCl, 2 mM EDTA, 2 mM EGTA, pH 7.0 with 10 μg/mL each of aprotinin, leupeptin, pepstatin, 1 mM benzamidine, and 1 mM PMSF. Two milligrams of the lysates were then immunoprecipitated with 2 μg of anti-STRN4 antibody (Abcam, ab177155) and 40 μl of protein-A-agarose beads at 4° C. overnight. Beads were washed three times with lysis buffer followed by the Ser/Thr assay buffer. Phosphatase reactions were then performed in Ser/Thr assay buffer with a final concentration of 750 μM of MAP4K4 phosphopeptides: S771/S775 (A-A-S-pS-L-N-L-pS-N-G-E-T-E-S-V-K), S876 (L-T-A-N-E-T Q-pS-A-S-S-T-L-Q-K) or S1251 (V-F-F-A-pS-V-R-S) for 10 min at 30° C. To provide evidence that the immunoprecipitated phosphatase activity is PP2A, we treated parallel immunoprecipitates with 5 nM of okadaic acid (Cell Signaling, #5934). Dephosphorylation of the phosphopeptide was measured through malachite green phosphate detection at 650 nm.

For data set [2], the system named is hiPsCMs. Briefly: LDH levels in cell supernatant from hiPsCMs. In kind it is cell-based, human. The settings on record: Dox 15 h.
For another data set, the system named is HL-1 cell line. Briefly: FOG2 mRNA levels in HL-1 cell line. In kind it is cell-based, mouse. The settings on record: 5 μM Dox for 15 h.
Data set [3] relates to miR-106b target FOG2 in hiPsCMs. The data set can be described thus: FOG2 mRNA levels (efficiency of miR-106b inhibition) in hiPsCMs. The data set is classed as cell-based, human. Conditions: preincubation 24 h, then Dox 15 h, vs AC.
Data set [4] relates to hiPsCMs. Briefly: Assay for cell viability (MTT). In kind it is cell-based, human. The settings on record: Dox 15 h. The protocol:
After seeding 5×10^3 cells in each 96-well plate, they were incubated in 5% CO2 at 37° C. for 24 h. After cited treatment, MTT solution (1 mg/ml) was added to each well and an incubation was performed for 3 h at 37° C. Next, the medium containing MTT was removed and 100 μL of DMSO was added to each well and pipetted several times to form a completely uniform suspension. The solution was then shaken for 10 min at 37° C. until formazan crystals were completely dissolved. The obtained solution was added to a microtube and centrifuged in 1500 RPM for 5 min to eliminate any impurities. Absorbance of the samples was read at 570 nm and the background value at 690 nm was subtracted. The intrinsic absorbance value of doxorubicin was subtracted when necessary. The index of cell survival at each time point corresponds to the percentage with respect to control.

As to `COc1cccc2c1C(=O)c1c(O)c3c(c(O)c1C2=O)C[C@@](O)(C(=O)CO)C[C@@H]3O[C@H]1C[C@H](N)[C@H](O)[C@H](C)O1` [Dox, doxorubicin], the “decrease in PR55α protein levels” value in the data set with PR55α (6 h of treatment) is 2.6±0.02 fold control; in the data set with PR55α (15 h, p<0.001), “significantly higher”. Besides, in the data set on HDAC4-YY1 interaction, the HDAC4-YY1 interaction result is “prevent HDAC4-YY1 interaction”. For the same compound, the “phosphorylation state of HDAC4 Ser246 in cytosol” value with HDAC4 was “significantly increases”. For the same compound, in the data set on HDAC4, the “total HDAC4 levels in nuclei fractions” value was “significative decrease in total HDAC4 levels”. For the same compound, the sST2 expression levels result with sST2 is listed as “increase in sST2 expression levels”. For the same compound, the YY1 protein expression in the data set with YY1 (6 h of treatment) is listed as 3.8±0.23 fold control; in the data set on YY1 (15 h, p<0.001), “significantly higher”. The “miR-106b levels in hiPsCMs” value with miR-106b (3 h of treatment) is given as 2.3±0.03 fold control; with miR-106b (15 h, p<0.001), “significantly higher”. Further, the “miR-106b levels in the culture media of hiPsCMs” value in the data set on miR-106b (significant from 15 h) is recorded as “progressively increased”.

Turning to “AM106: miRCURY LNA microRNA Inhibitor against miR-106b-5p, 5′-CACTGTCAGCACTTT-3′ (SEQ ID NO 3), sequence shown without LNA pattern (antisense CACUGUCAGCACUUU; LNA-modified inhibitor, LNA pattern not given here)”, the PR55α levels entry in the data set with PR55α (with or without Dox) is listed as “prevented Dox-induced PR55α degradation”. The HDAC4-YY1 interaction entry in the data set with HDAC4-YY1 interaction is given as “favored these interaction”. In data set [1], the “caspase 3/7 activity (myocardial apoptosis)” value was “decrease in caspase 3/7 activity”. The PP2A activity result in the data set on PP2A is “prevented Dox-induced PP2A activity decrease”. Moreover, in the data set with HDAC4, the “phosphorylation state of HDAC4 Ser246 in cytosol” value is recorded as “decreased phosphorylation state of HDAC4” and the “total HDAC4 levels in nuclei fractions” value is on record as “increased”. For the same compound, the sST2 expression levels result with sST2 is “reverted this effect”. The “release of LDH” value in the data set with hiPsCMs [2] is recorded as “prevent the release of LDH”. The “FOG2 mRNA levels” value in the data set on HL-1 cell line is “increases FOG2 mRNA levels”. Also, in [3], the “FOG2 mRNA levels” value was “prevent down-regulation of FOG2 mRNA levels”. Further, the “loss of Dox-induced cell viability” value in the data set with hiPsCMs [4] was “able to prevent”.
